Experimental data taken from patent US20060264460A1 (Wyeth, priority 2005, published 2006).
Values belong to the compound of their own block, whether it stands above or below them.

Target: T1, human Cot/Tpl2 kinase (Homo sapiens, UniProt P41279)
T1 construct: human Cot/Tpl2 kinase construct encoding residues 30-398; 6His (N); made in house; host or cells: Sf9 insect cells, baculovirus system (BD Biosciences)
Test: Tpl2/Cot kinase assay: GST-MEK1 phosphorylation detected by ELISA (DELFIA Eu)
Type: biochemical
Description: Sf9 cells expressing the kinase were lysed in 50 mM NaPhosphate pH=8; 300 mM NaCl; 5 mM imidazole; 0.1 mM EGTA; 25 mM beta-glycerophosphate; 1% TX-100, 1% glycerol; 6 mM beta-mercaptoethanol and protease inhibitors. The lysate was clarified by centrifugation and was loaded onto a Ni-Sepharose column. The column was washed with 50 mM NaPhosphate pH=8; 300 mM NaCl; 15 mM imidazole; 1% glycerol; and 6 mM beta-mercaptoethanol. His-Tpl2 was eluted with 50 mM NaPhosphate pH=8; 300 mM NaCl; 250 mM imidazole; 1% glycerol; and 6 mM beta-mercaptoethanol. The eluted protein was further purified by size exclusion chromatography. Fractions corresponding to monomeric Tpl2 were then used in the assay.
Tpl2/Cot activity was directly assayed using GST-MEK1 as a substrate. GST-MEK1 phosphorylation on serine residues 217 and 221 was detected by ELISA. 0.4 nM Tpl2 was incubated with 35 nM GST-MEK1 in a kinase reaction buffer containing 20 mM MOPS pH=7.2; 50 uM ATP; 20 mM MgCl2; 1 mM DTT; 25 mM β-glycerophosphate; 5 mM EGTA; and 1 mM sodium orthovanadate for 1 h at 30° C. The compounds of the inventions solubilized in 100% DMSO were pre-diluted in assay buffer so that the final concentration of DMSO in the reaction was 1%. The kinase reaction was carried out in 100 ul volume on 96 well plates. The kinase reaction was then stopped with the addition of 100 mM EDTA. […] After a 1 hour incubation at room temperature, the detection plate was washed 4 times with TBST (TBS+0.05% Tween 20) and then incubated for another hour at room temperature with anti phospho-MEK1 antibody (Cell Signaling) 1:1000 in 10 mM MOPS 7.5; 150 mM NaCl; 0.05% Tween 20; 0.1% Gelatin; 0.02% NaN3; and 1% BSA. The detection plate was washed again and incubated for 30 min with DELFIA Europium (Eu) labeled goat anti-rabbit IgG (Perkin-Elmer), 1:4000 in the same buffer used for the primary incubation. After a final wash, Eu detection solution was added to each well and the Eu signal was measured in a Wallac Victor^2 Multilabel Counter. IC50 calculations were performed using the XLfit software package (IDBS, Guildford, UK).

[1] = Tpl2/Cot kinase, GST-MEK1 substrate, 50 uM ATP
[2] = 0.4 nM Tpl2, 35 nM GST-MEK1, 50 uM ATP, 1 h at 30° C.
[3] = Table 2, Tpl2/Cot kinase, GST-MEK1 substrate, 50 uM ATP
[4] = Tpl2/Cot kinase, GST-MEK1 substrate, 50 uM ATP, 1 h at 30° C., Table 2

T1 sequence (P41279 30-398): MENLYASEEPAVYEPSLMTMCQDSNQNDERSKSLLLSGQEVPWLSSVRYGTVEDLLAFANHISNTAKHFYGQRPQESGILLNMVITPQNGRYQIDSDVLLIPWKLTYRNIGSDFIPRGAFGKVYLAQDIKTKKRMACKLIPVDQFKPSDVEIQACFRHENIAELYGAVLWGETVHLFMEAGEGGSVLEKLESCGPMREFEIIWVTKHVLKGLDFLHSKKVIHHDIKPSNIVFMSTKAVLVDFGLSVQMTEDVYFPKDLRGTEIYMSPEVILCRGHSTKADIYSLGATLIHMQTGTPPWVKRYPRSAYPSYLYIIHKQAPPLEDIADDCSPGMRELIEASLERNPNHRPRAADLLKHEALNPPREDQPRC

Compound: CC(C)(C)OC(=O)N1CCC(CCn2cc(CN(Cc3cn(CCC4CCN(C(=O)OC(C)(C)C)CC4)nn3)c3cc(Br)c4ncc(C#N)c(Nc5ccc(F)c(Cl)c5)c4c3)nn2)CC1 [Example 693]
IC50 [1]: > 3000 nM

Compound: CN(C)C(=O)c1cc(NCCN2CCOCC2)cc2c(Nc3cccc(Cl)c3)c(C#N)cnc12 [Example 68, 4-(3-chlorophenylamino)-3-cyano-N,N-dimethyl-6-(2-morpholinoethylamino)quinoline-8-carboxamide]
IC50 [2]: 11000 nM

Compound: CCN1CCC[C@H]1Cn1cc(CNc2cc(Cl)c3ncc(C#N)c(Nc4ccc(F)c(Cl)c4)c3c2)nn1 [Example 895]
IC50 [1]: 10 nM

Compound: N#Cc1cnc2ccc(NC(=O)c3cccnc3)cc2c1Nc1ccc(F)c(Cl)c1 [Example 2, N-[4-(3-Chloro-4-fluoro-phenylamino)-3-cyano-quinolin-6-yl]-nicotinamide]
IC50 [2]: 23900 nM

Compound: CC(C)(C)OC(=O)COc1ccc(CNc2ccc3ncc(C#N)c(Nc4ccc(F)c(Cl)c4)c3c2)cc1Br [Example 381]
IC50 [3]: > 40000 nM

Compound: N#Cc1cnc2c(Br)cc(NCc3cn(CCS(=O)(=O)C4CCCC4)nn3)cc2c1Nc1ccc(F)c(Cl)c1 [Example 699]
IC50 [1]: 53 nM

Compound: N#Cc1cnc2c(Cl)cc(NCc3cn(C4CCCN(CCF)CC4)nn3)cc2c1Nc1ccc(F)c(Cl)c1 (centres unmarked) [Example 1011]
IC50 [4]: 9.1 nM

Compound: N#Cc1cnc2ccc(NCc3ccc(S(N)(=O)=O)cc3)cc2c1NC1CCCCCC1 [Example 250, 4-({[3-cyano-4-(cycloheptylamino)quinolin-6-yl]amino}methyl)benzenesulfonamide]
IC50 [2]: 6800 nM

Compound: N#Cc1cnc2ccc(NCc3ncc[nH]3)cc2c1Nc1ccc(F)c(Cl)c1 [Example 13, 4-(3-Chloro-4-fluoro-phenylamino)-6-[(1H-imidazol-2-ylmethyl)-amino]-quinoline-3-carbonitrile]
IC50 [2]: 30 nM

Compound: CN(CCn1cc(CNc2cc(Br)c3ncc(C#N)c(Nc4ccc(F)c(Cl)c4)c3c2)nn1)C(=O)OC(C)(C)C [Example 500]
IC50 [3]: 67 nM

Compound: N#Cc1cnc2c(Cl)cc(NCc3cn(CCN4CCN(CC5CC5)CC4)nn3)cc2c1Nc1ccc(F)c(Cl)c1 [Example 966]
IC50 [4]: 150 nM

Compound: CN1CCC(CNc2cc(Cl)c3ncc(C#N)c(Nc4ccc(F)c(Cl)c4)c3c2)CC1 [Example 849]
IC50 [1]: 1910 nM

Compound: CC(C)NC1CCC(n2cc(CNc3cc(Cl)c4ncc(C#N)c(Nc5ccc(F)c(Cl)c5)c4c3)nn2)CC1 (centres unmarked) [Example 1037]
IC50 [4]: 20 nM

Compound: N#Cc1cnc2c(Cl)cc(NCCn3ccnc3)cc2c1Nc1ccc(F)c(Cl)c1 [Example 212, 8-chloro-4-[(3-chloro-4-fluorophenyl)amino]-6-{[2-(1H-imidazol-1-yl)ethyl]amino}quinoline-3-carbonitrile]
IC50 [2]: 400 nM

Compound: N#Cc1cnc2c(Cl)cc(NCc3cccs3)cc2c1Nc1ccc(F)c(Cl)c1 [Example 1002]
IC50 [4]: > 3000 nM

Compound: N#Cc1cnc2ccc(NCc3ccccc3)cc2c1Nc1ccc(F)c(Cl)c1 [Example 36, 6-Benzylamino-4-(3-chloro-4-fluoro-phenylamino)-quinoline-3-carbonitrile]
IC50 [2]: 630 nM

Compound: CN(Cc1cn(C)cn1)c1cc(Br)c2ncc(C#N)c(Nc3ccc(F)c(Cl)c3)c2c1 [Example 611]
IC50 [3]: > 3000 nM

Compound: COc1cc(NCc2cccnc2)cc2c(Nc3ccc(F)c(Cl)c3)c(C#N)cnc12 [Example 380]
IC50 [3]: 1100 nM

Compound: CC(C)(C)OC(=O)N1CCC(CNc2cc(Cl)c3ncc(C#N)c(Nc4ccc(F)c(Cl)c4)c3c2)CC1 [Example 322, tert-butyl 4-((8-chloro-4-(3-chloro-4-fluorophenylamino)-3-cyanoquinolin-6-ylamino)methyl)piperidine-1-carboxylate]
IC50 [2]: 2120 nM

Compound: N#Cc1cnc2ccc(NCc3ccc(CO)o3)cc2c1Nc1ccc(F)c(Cl)c1 [Example 9, 4-(3-Chloro-4-fluoro-phenylamino)-6-[(5-hydroxymethyl-furan-2-ylmethyl)-amino]-quinoline-3-carbonitrile]
IC50 [2]: 211 nM

Compound: N#Cc1cnc2c(Cl)cc(NCC(O)CO)cc2c1Nc1ccc(F)c(Cl)c1 (centres unmarked) [Example 797]
IC50 [1]: 590 nM

Compound: N#Cc1cccc(CNc2ccc3ncc(C#N)c(NC4CCCC4)c3c2)c1 [Example 420]
IC50 [3]: 2200 nM

Compound: Cc1c(CNc2cc(F)c3ncc(C#N)c(Nc4ccc(F)c(Cl)c4)c3c2)ncn1C [Example 269, 4-[(3-chloro-4-fluorophenyl)amino]-6-{[(1,5-dimethyl-1H-imidazol-4-yl)methyl]amino}-8-fluoroquinoline-3-carbonitrile]
IC50 [2]: 16 nM

Compound: N#Cc1cnc2c(Cl)cc(NCc3cc(Br)cs3)cc2c1Nc1ccc(F)c(Cl)c1 [Example 1004]
IC50 [4]: > 3000 nM

Compound: N#Cc1cnc2c(Cl)cc(NCC(=O)NCc3ccccn3)cc2c1Nc1ccc(F)c(Cl)c1 [Example 780]
IC50 [1]: 330 nM

Compound: N#Cc1cnc2ccc(NCc3ccccc3)cc2c1Nc1ccc(N2CCOCC2)cc1 [Example 66, 6-(benzylamino)-4-(4-morpholinophenylamino)quinoline-3-carbonitrile]
IC50 [2]: > 40000 nM

Now from value to compound:

IC50 [2]: > 40000 nM
Compound: N#Cc1cnc2c(Br)cc(NCc3cn(CCN4C(=O)c5ccccc5C4=O)nn3)cc2c1Nc1ccc(F)c(Cl)c1 [Example 303, 8-Bromo-4-(3-chloro-4-fluoro-phenylamino)-6-({1-[2-(1,3-dioxo-1,3-dihydro-isoindol-2-yl)-ethyl]-1H-[1,2,3]triazol-4-ylmethyl}-amino)-quinoline-3-carbonitrile]

IC50 [3]: 23 nM
Compound: N#Cc1cnc2c(Br)cc(NCc3cn(-c4ccncc4)cn3)cc2c1Nc1ccc(F)c(Cl)c1 [Example 554]

IC50 [3]: 320 nM
Compound: N#Cc1cnc2c(Cl)cc(NCc3cn(-c4ccnc(N5CCCCC5)n4)nn3)cc2c1Nc1ccc(F)c(Cl)c1 [Example 578]

IC50 [2]: 1800 nM
Compound: CC(C)(C)OC(=O)N1CCC(NC(=O)Cn2ccnc2CNc2ccc3ncc(C#N)c(Nc4ccc(F)c(Cl)c4)c3c2)CC1 [Example 142, tert-butyl 4-(2-(2-((4-(3-chloro-4-fluorophenylamino)-3-cyanoquinolin-6-ylamino)methyl)-1H-imidazol-1-yl)acetamido)piperidine-1-carboxylate]

IC50 [4]: 490 nM
Compound: N#Cc1cnc2c(Cl)cc(NCc3cn(C4CCN(c5ncccc5C(F)(F)F)CC4)nn3)cc2c1Nc1ccc(F)c(Cl)c1 [Example 1008]

IC50 [2]: 10 nM
Compound: N#Cc1cnc2c(Cl)cc(NCc3cnc[nH]3)cc2c1Nc1ccc(F)c(Cl)c1 [Example 177, 6-((1H-imidazol-5-yl)methylamino)-8-chloro-4-(3-chloro-4-fluorophenylamino)quinoline-3-carbonitrile]

IC50 [2]: 24000 nM
Compound: N#Cc1cccc(CNc2cc(C(F)(F)F)c3ncc(C#N)c(Nc4ccc(F)c(Cl)c4)c3c2)c1 [Example 232, 4-[(3-chloro-4-fluorophenyl)amino]-6-[(3-cyanobenzyl)amino]-8-(trifluoromethyl)quinoline-3-carbonitrile]

IC50 [4]: 520 nM
Compound: CC(C)(C)OC(=O)N1CCC(n2cc(COc3cc(Cl)c4ncc(C#N)c(Nc5ccc(F)c(Cl)c5)c4c3)nn2)CC1 [Example 941]

IC50 [3]: 260 nM
Compound: COCc1nc(CNc2cc(Cl)c3ncc(C#N)c(Nc4ccc(F)c(Cl)c4)c3c2)c[nH]1 [Example 432]

IC50 [3]: 230 nM
Compound: Cn1nnc(CNc2cc(Cl)c3ncc(C#N)c(Nc4ccc(F)c(Cl)c4)c3c2)n1 [Example 466]

IC50 [3]: 48 nM
Compound: CN(CCn1cc(CNc2cc(Cl)c3ncc(C#N)c(Nc4ccc(F)c(Cl)c4)c3c2)nn1)C(=O)OC(C)(C)C [Example 502]

IC50 [2]: 110 nM
Compound: N#Cc1cnc2c(Br)cc(NCc3nn[nH]c3-c3ccccc3F)cc2c1Nc1ccc(F)c(Cl)c1 [Example 118, 8-bromo-4-[(3-chloro-4-fluorophenyl)amino]-6-({[5-(2-fluorophenyl)-1H-1,2,3-triazol-4-yl]methyl}amino)quinoline-3-carbonitrile]

IC50 [3]: 130 nM
Compound: CCN1CC(CCn2cc(CNc3cc(Cl)c4ncc(C#N)c(Nc5ccc(F)c(Cl)c5)c4c3)nn2)N(c2ccccc2)C1=S (centres unmarked) [Example 617]

IC50 [4]: 970 nM
Compound: N#Cc1cnc2c(Cl)cc(NCc3cn(C4CCNCC4)nn3)cc2c1NC1CCCC2(CCCC2)C1 (centres unmarked) [Example 979]

IC50 [2]: 63 nM
Compound: CN(C)C(=O)c1cc(NCc2nc3ccccc3n2C)cc2c(Nc3ccc(F)c(Cl)c3)c(C#N)cnc12 [Example 83, 4-(3-chloro-4-fluorophenylamino)-3-cyano-N,N-dimethyl-6-((1-methyl-1H-benzo[d]imidazol-2-yl)methylamino)quinoline-8-carboxamide]
